ChEMBL document CHEMBL1147043, “Comparative metabolism of radiolabeled muraglitazar in animals and humans by quantitative and qualitative metabolite profiling” (Drug Metab Dispos, 2007)

Key:
[1] = Biodistribution in orally dosed Beagle dog feces assessed as 17-hydroxy muraglitazar level by LC/MS analysis; type: ADME, organism-based, Canis lupus familiaris; settings: in vivo, po
[2] = Biodistribution in orally dosed cynomolgus monkey feces assessed as muraglitazar 12-carboxylic acid level by LC/MS analysis; type: ADME, organism-based, Macaca fascicularis; settings: in vivo, po
[3] = Biodistribution in orally dosed Beagle dog feces assessed as O-demethyl muraglitazar level by LC/MS analysis; type: ADME, organism-based, Canis lupus familiaris; settings: in vivo, po
[4] = Biodistribution in orally dosed cynomolgus monkey urine assessed as O-demethyl muraglitazar level by LC/MS analysis; type: ADME, organism-based, Macaca fascicularis; settings: in vivo, po
Hepatocyte [5] = experiment: Metabolic stability in Sprague-Dawley rat hepatocytes assessed as 17-hydroxy-O-demethyl muraglitazar level by LC/MS analysis relative to control; type: ADME, cell-based
[6] = Metabolic stability in cynomolgus monkey hepatocytes assessed as O-Dealkyl muraglitazar level by LC/MS analysis relative to control; type: ADME, cell-based, Macaca fascicularis, Hepatocyte
[7] = Metabolic stability in cynomolgus monkey hepatocytes assessed as 17-hydroxy muraglitazar level by LC/MS analysis relative to control; type: ADME, cell-based, Macaca fascicularis, Hepatocyte
[8] = Metabolic stability in cynomolgus monkey hepatocytes assessed as O-demethyl muraglitazar glucuronide level by LC/MS analysis relative to control; type: ADME, cell-based, Macaca fascicularis, Hepatocyte
Hepatocyte [9] = experiment: Metabolic stability in human hepatocytes assessed as muraglitazar 12-carboxylic acid level by LC/MS analysis relative to control; type: ADME, cell-based
[10] = Biodistribution in orally dosed cynomolgus monkey urine assessed as 9-hydroxy muraglitazar level by LC/MS analysis; type: ADME, organism-based, Macaca fascicularis; settings: in vivo, po
[11] = Biodistribution in orally dosed cynomolgus monkey feces assessed as 9-hydroxy muraglitazar level by LC/MS analysis; type: ADME, organism-based, Macaca fascicularis; settings: in vivo, po
[12] = Biodistribution in orally dosed human feces assessed as acetylimide derivative of muraglitazar level by LC/MS analysis; type: ADME, organism-based; settings: in vivo, po
[13] = Metabolic stability in CD1 mouse hepatocytes assessed as 17-hydroxy muraglitazar level by LC/MS analysis relative to control; type: ADME, cell-based, Hepatocyte
[14] = Metabolic stability in CD1 mouse hepatocytes assessed as 9-hydroxy muraglitazar level by LC/MS analysis relative to control; type: ADME, cell-based, Hepatocyte
[15] = Metabolic stability in CD1 mouse hepatocytes assessed as O-demethyl muraglitazar level by LC/MS analysis relative to control; type: ADME, cell-based, Hepatocyte
Hepatocyte [16] = experiment: Metabolic stability in Sprague-Dawley rat hepatocytes assessed as O-Dealkyl muraglitazar level by LC/MS analysis relative to control; type: ADME, cell-based
Hepatocyte [17] = experiment: Metabolic stability in Sprague-Dawley rat hepatocytes assessed as hydroxyl-O-demethyl muraglitazar glucuronide level by LC/MS analysis relative to control; type: ADME, cell-based
[18] = Metabolic stability in cynomolgus monkey hepatocytes assessed as O-demethyl muraglitazar level by LC/MS analysis relative to control; type: ADME, cell-based, Macaca fascicularis, Hepatocyte
[19] = Biodistribution in orally dosed Beagle dog feces assessed as 12,17-dihydroxy muraglitazar level by LC/MS analysis; type: ADME, organism-based, Canis lupus familiaris; settings: in vivo, po
[20] = Biodistribution in orally dosed human feces assessed as 12,17-dihydroxy muraglitazar level by LC/MS analysis; type: ADME, organism-based; settings: in vivo, po
[21] = Biodistribution in orally dosed human feces assessed as 8-hydroxy muraglitazar level by LC/MS analysis; type: ADME, organism-based; settings: in vivo, po
[22] = Biodistribution in orally dosed human feces assessed as imide derivative of muraglitazar level by LC/MS analysis; type: ADME, organism-based; settings: in vivo, po
[23] = Drug concentration in human feces assessed as recovery of radioactive dose at 10 mg, po after 240 hrs; type: ADME, organism-based; settings: in vivo
[24] = Drug concentration in human urine assessed as recovery of radioactive dose at 20 mg, po after 240 hrs; type: ADME, organism-based; settings: in vivo
[25] = Drug concentration in Sprague-Dawley rat urine at 11 mg/kg, po after 12 hrs; type: ADME, organism-based; parameters: dose 11 mg/kg, route oral; settings: read-out: Drug uptake
[26] = Drug concentration in Beagle dog urine at 2 mg/kg, po after 24 hrs; type: ADME, organism-based, Canis lupus familiaris; parameters: dose 2 mg/kg, route oral; settings: read-out: Drug uptake
[27] = Drug concentration in bile duct-cannulated Sprague-Dawley rat bile at 10 mg/kg, po after 24 hrs; type: ADME, organism-based; parameters: dose 10 mg/kg, route oral; settings: in vivo
[28] = Fecal excretion of compound in orally dosed cynomolgus monkey within 96 hrs; type: ADME, organism-based, Macaca fascicularis; settings: faeces, po, read-out: Activity
Plasma [29] = experiment: Biodistribution in orally dosed cynomolgus monkey plasma assessed as muraglitazar glucuronide level after 12 hrs by LC/MS analysis; type: ADME, organism-based, Macaca fascicularis; settings: in vivo, po
[30] = Biodistribution in orally dosed human feces assessed as 8,12-dihydroxy muraglitazar level by LC/MS analysis; type: ADME, organism-based; settings: in vivo, po
[31] = Biodistribution in orally dosed human feces assessed as 12-hydroxy-O-demethyl muraglitazar level by LC/MS analysis; type: ADME, organism-based; settings: in vivo, po
Plasma [32] = experiment: Biodistribution in orally dosed Sprague-Dawley rat plasma assessed as […] muraglitazar level after 12 hrs by LC/MS analysis; type: ADME, organism-based; settings: in vivo, po
Plasma [33] = experiment: Biodistribution in orally dosed Beagle dog plasma assessed as 12-dihydroxy muraglitazar level after 12 hrs by LC/MS analysis; type: ADME, organism-based, Canis lupus familiaris; settings: in vivo, po
Plasma [34] = experiment: Biodistribution in orally dosed Beagle dog plasma assessed as 17-dihydroxy muraglitazar level after 1 hr by LC/MS analysis; type: ADME, organism-based, Canis lupus familiaris; settings: in vivo, po
Plasma [35] = experiment: Biodistribution in orally dosed cynomolgus monkey plasma assessed as O-Dealkyl muraglitazar level after 1 hr by LC/MS analysis; type: ADME, organism-based, Macaca fascicularis; settings: in vivo, po
Plasma [36] = experiment: Biodistribution in orally dosed human plasma assessed as O-Dealkyl muraglitazar level after 4 hrs by LC/MS analysis; type: ADME, organism-based; settings: in vivo, po
Plasma [37] = experiment: Biodistribution in orally dosed cynomolgus monkey plasma assessed as 8-hydroxy-O-demethyl muraglitazar level after 4 hrs by LC/MS analysis; type: ADME, organism-based, Macaca fascicularis; settings: in vivo, po
Plasma [38] = experiment: Biodistribution in orally dosed Beagle dog plasma assessed as 12-hydroxy-O-demethyl muraglitazar level after 1 hr by LC/MS analysis; type: ADME, organism-based, Canis lupus familiaris; settings: in vivo, po
Plasma [39] = experiment: Biodistribution in orally dosed Beagle dog plasma assessed as 12-hydroxy-O-demethyl muraglitazar level after 12 hrs by LC/MS analysis; type: ADME, organism-based, Canis lupus familiaris; settings: in vivo, po
Plasma [40] = experiment: Biodistribution in orally dosed cynomolgus monkey plasma assessed as 17-hydroxy-O-demethyl muraglitazar level after 4 hrs by LC/MS analysis; type: ADME, organism-based, Macaca fascicularis; settings: in vivo, po
[41] = Biodistribution in orally dosed cynomolgus monkey urine assessed as 9-hydroxy-O-demethyl muraglitazar level by LC/MS analysis; type: ADME, organism-based, Macaca fascicularis; settings: in vivo, po
[42] = Tmax in Sprague-Dawley rat at 10 mg/kg, po after 24 hrs; type: ADME, organism-based; parameters: dose 10 mg/kg, route oral; settings: in vivo
[43] = Tmax in cynomolgus monkey at 1.9 mg/kg, po after 24 hrs; type: ADME, organism-based, Macaca fascicularis; parameters: dose 1.9 mg/kg, route oral; settings: in vivo
[44] = Half life in human at 10 mg, po after 72 hrs; type: ADME, organism-based; settings: in vivo
[45] = Biodistribution in orally dosed human feces assessed as 8-hydroxy-O-demethyl muraglitazar level by LC/MS analysis; type: ADME, organism-based; settings: in vivo, po

With `COc1ccc(OC(=O)N(CC(=O)O)Cc2ccc(OCCc3nc(-c4ccccc4)oc3C)cc2)cc1` [MURAGLITAZAR] the Drug uptake [1] was 1.78%, the Drug uptake [2] was 1.61% and the Drug uptake [3] was 24.92%. For the same compound, the Drug uptake [4] was 0.08%, the Drug uptake (Hepatocyte [5]) was < 0.2% and the Drug uptake [6] was 7.6%. For the same compound, the Drug uptake [7] was 7.9%, the Drug uptake [8] was < 0.2% and the Drug uptake (Hepatocyte [9]) was 0.9%. The Drug uptake [10] was 0.03%, the Drug uptake [11] was 0.56% and the Drug uptake [12] was 3.21%. The Drug uptake [13] was 5.4%, the Drug uptake [14] was 1.3% and the Drug uptake [15] was 1.2%. For the same compound, the Drug uptake (Hepatocyte [16]) was 12%, the Drug uptake (Hepatocyte [17]) was < 0.2% and the Drug uptake [18] was 2.1%. The Drug uptake [19] was 0.89%, the Drug uptake [20] was 0.56% and the Drug uptake [21] was 0.56%. For the same compound, the Drug uptake [22] was 2.46%, the Drug uptake [23] was 61.6% and the Drug uptake [24] was 3.7%. It also gave a dose excreted at 12 h [25] of 0.51%, a dose excreted at 24 h [26] of 0.49% and a Drug uptake [27] of 0.289 mgequiv/ml. The dose excreted at 96 h [28] was 75%, the Drug uptake (Plasma [29]) was 0.1% and the Drug uptake [30] was 2.83%. For the same compound, the Drug uptake [31] was 11.45%, the Drug uptake (Plasma [32]) was < 0.05% and the Drug uptake (Plasma [33]) was 9%. For the same compound, the Drug uptake (Plasma [34]) was < 0.05%, the Drug uptake (Plasma [35]) was 0.3% and the Drug uptake (Plasma [36]) was < 0.05%. It also gave a Drug uptake (Plasma [37]) of 0.1%, a Drug uptake (Plasma [38]) of 1% and a Drug uptake (Plasma [39]) of 15%. For the same compound, the Drug uptake (Plasma [40]) was < 0.05%, the Drug uptake [41] was 0.18% and the Tmax [42] was 0.5 h. The Tmax [43] was 1 h, the half-life [44] was 19.8 h and the Drug uptake [45] was 0.56%.
